Assay results as given in patent US5698547A, “Cephalosporin antibiotics” (Microcide Pharmaceuticals, Inc., priority 1995, dated 1997).
≈ marks a conversion by molar mass, not a printed value. Counter-ions that a name gives are not always drawn.

tested on: S. aureus Col (Meth^R) (lac^-); assay: MIC by agar dilution, S. aureus Col (Meth^R) (lac^-); assay type: cell-based; details: Staphylococcus aureus; agar dilution; S. aureus Col (Meth^R) (lac^-); read-out: MIC
Description: The compounds of the invention were evaluated against several β-lactamresistant bacteria strains by determining the minimum inhibitory concentration (MIC, μg/ml) of each compound with respect to each strain. The MIC, the lowest concentration of antibiotic which inhibits growth of the test organism, was determined by the agar dilution method.
To determine the MIC for bacterial isolates, the test compound was incorporated in a series of two-fold dilutions into liquified Mueller-Hinton agar. Upon solidification, a number of different bacterial strains were spot inoculated with a replicating device onto the agar surface. […] The procedures used in these studies have been standardized by the National Committee for Clinical Laboratory Standards (NCCLS), as per the NCCLS publication entitled METHODS FOR DILUTION ANTIMICROBIAL SUSCEPTIBILITY TESTS (1991), which is incorporated herein by reference.
Aliquots of antimicrobial agents were prepared in phosphate buffered saline (PBS) at pH 7.2. Tween 20 or DMSO was used as a solubilizing vehicle as needed. Standard methods of vortexing, sonicating and gentle heat were used to facilitate solubilizing the test agent. Typically, the concentration of the stock solution was 10× that of the highest drug concentration tested. A 1.28 mg/mL stock solution was used with a subsequent highest working concentration of 128 μg/mL. Serial two-fold dilutions were done through ≤0.25 μg/mL. Each drug level was tested in duplicate. Two-fold drug dilutions were done in sterile 50 mL tubes with a final drug volume of 5 mL. Upon the addition of 45 mL of molten agar, a 10-fold dilution resulted. Two, 25 mL. plates were then poured into 15×150 mm square Petri plates with grids and allowed to harden.
A control plate with a reference drug, either cefotaxime, vancomycin or imipenem, was used as the positive growth control. Stock concentrations of reference antibiotics were prepared and frozen at -80° C. Upon preparation, the control plates were sealed and stored in the refrigerator for up to 1 week prior to use; however, imipenem control plates had to be prepared just prior to use. All test plates were used within 24 hours of preparation.
Satisfactory results were obtained where the inoculum contained about 10^4 colony forming units (cfu) ±0.5 logs. Starting with pure cultures of the test isolates on agar plates, a few isolated colonies were transferred to a tube of nutrient broth and allowed to grow 4-6 hours at 35°-36° C. to reach log-phase growth. Dropwise addition of the broth culture to PBS was done to match a 0.5 McFarland turbidity standard equal to 10^8 cfu/mL. This was further diluted ten-fold in PBS to reach a working inoculum concentration of 10^7 cfu/mL. When 1 μL of the working inoculum was applied to the agar surface a concentration of about 10^4 cfu per spot was obtained.
Disposable sterile 1 μL loops were used to inoculate test plates, with each isolate in a designated grid on the agar plate. An alternate method of inoculation involved the use of a replica plater, a device with 48 steel pins allowing the simultaneous inoculation of multiple isolates. After the spots had dried, the plates were incubated at 35°-36° C. for 16-20 hours. Endpoints were assessed as the minimum inhibitory concentration (MIC) of antimicrobial agent.
The novel agents of this invention are notable for their enhanced activity against S. aureus Col and Enterococci (E. faecium and E. faecalis). The S. aureus Col strain is a high-level PBP2a producer, whereas S. aureus Col 8A, its isogenic partner, lacks PBP2a. […] Thus, the compounds of the present invention are effective against PBP2a-producing bacteria.

SMILES	MIC [µg/mL]
N#Cc1ccccc1SC1=C(C(=O)O)N2C(=O)[C@@H](NC(=O)/C(=N\OC3CCCC3)c3csc(N)n3)[C@H]2SC1 [Cmpd 53, (7R)-7-[(Z)-2-(aminothiazol-4-yl)-2-(cyclopentyloxyimino)acetamido]-3-(2-cyanophenylthio)-3-cephem-4-carboxylic acid]	4 (≈ 7.01 µM)
O=C(Cc1ccccc1)N[C@@H]1C(=O)N2C(C(=O)O)=C(Sc3cccc4ccccc34)CS[C@H]12 [Cmpd 54, (7R)-7-[(Phenylacetyl)amino]-3-(1-naphthalenylthio)-3-cephem-4-carboxylic acid]	1 (≈ 2.1 µM)
O=C(Cc1ccccc1)N[C@@H]1C(=O)N2C(C(=O)O)=C(Sc3cccc4c3CCCC4)CS[C@H]12 [Cmpd 56, (7R)-7-[(Phenylacetyl)amino]-3-(5,6,7,8-tetrahydronaphthalen-1-ylthio)-3-cephem-4-carboxylic acid]	1 (≈ 2.08 µM)
O=C(Cc1ccccc1)N[C@@H]1C(=O)N2C(C(=O)O)=C(Sc3ccc4ccccc4c3Br)CS[C@H]12 [Cmpd 57, (7R)-7-[(Phenylacetyl)amino]-3-(1-bromo-naphthalen-2-ylthio)-3-cephem-4-carboxylic acid]	0.5 (≈ 0.9 µM)
O=C(Cc1ccccc1)N[C@@H]1C(=O)N2C(C(=O)O)=C(Sc3ccc(CSC4=NCCN4)cc3I)CS[C@H]12 [Cmpd 59, (7R)-7-[(Phenylacetyl)amino]-3-(4-(2-imidazolin-2-ylthiomethyl)-2-iodophenylthio)-3-cephem-4-carboxylic acid]	2 (≈ 3 µM)
N=C(N)NC(=N)SCc1ccc(SC2=C(C(=O)O)N3C(=O)[C@@H](NC(=O)Cc4ccccc4)[C@H]3SC2)c(I)c1 [Cmpd 60, (7R)-7-[(Phenylacetyl)amino]-3-(4-(N-amidino)isothiouroniummethyl-2-iodophenylthio)-3-cephem-4-carboxylate, inner salt]	0.5
N=C(NCCN1CCOCC1)SCc1ccc(SC2=C(C(=O)O)N3C(=O)[C@@H](NC(=O)Cc4ccccc4)[C@H]3SC2)c(I)c1 [Cmpd 61, (7R)-7-[(Phenylacetyl)amino]-3-(4-(N-morpholinoethyl)isothiouroniummethyl-2-iodophenylthio)-3-cephem-4-carboxylate, inner salt]	4
CN(C)C(SCc1ccc(SC2=C(C(=O)[O-])N3C(=O)[C@@H](NC(=O)Cc4ccccc4)[C@H]3SC2)c(I)c1)=[N+](C)C [Cmpd 62, (7R)-7-[(Phenylacetyl)amino]-3-(4-tetramethylisothiouroniummethyl-2-iodophenylthio)-3-cephem-4-carboxylate, inner salt]	4
N=C(N)SCc1ccc(SC2=C(C(=O)O)N3C(=O)[C@@H](NC(=O)Cc4ccccc4)[C@H]3SC2)cc1 [Cmpd 63, (7R)-7-[(Phenylacetyl)amino]-3-(4-isothiouroniummethylphenylthio)-3-cephem-4-carboxylate, inner salt]	4
N=C(N)SCc1ccccc1SC1=C(C(=O)O)N2C(=O)[C@@H](NC(=O)Cc3ccccc3)[C@H]2SC1 [Cmpd 64, (7R)-7-[(Phenylacetyl)amino]-3-(2-isothiouroniummethylphenylthio)-3-cephem-4-carboxylate, inner salt]	0.5
O=C(Cc1ccccc1)N[C@@H]1C(=O)N2C(C(=O)O)=C(Sc3ccc(CSc4ncn[nH]4)cc3)CS[C@H]12 [Cmpd 65, (7R)-7-[(Phenylacetyl)amino]-3-(4-(1,2,4-triazol-5-ylthiomethyl)phenylthio)-3-cephem-4-carboxylic acid]	8 (≈ 14.8 µM)
N#CCC(=O)N[C@@H]1C(=O)N2C(C(=O)O)=C(Sc3ccc(CSC(=N)N)cc3I)CS[C@H]12 [Cmpd 66, (7R)-7-[(Cyanoacetyl)amino]-3-(4-isothiouroniummethyl-2-iodophenylthio)-3-cephem-4-carboxylate, inner salt]	2
O=C(Cc1ccccc1)N[C@@H]1C(=O)N2C(C(=O)O)=C(Sc3ccccc3CSc3ncn[nH]3)CS[C@H]12 [Cmpd 67, (7R)-7-[(Phenylacetyl)amino]-3-(2-(1,2,4-triazol-5-ylthiomethyl)phenylthio)-3-cephem-4-carboxylic acid]	4 (≈ 7.41 µM)
O=C1CNC(SCc2ccccc2SC2=C(C(=O)O)N3C(=O)[C@@H](NC(=O)Cc4ccccc4)[C@H]3SC2)=N1 [Cmpd 68]	8 (≈ 14.4 µM)
CN(C)C(SCc1ccccc1SC1=C(C(=O)[O-])N2C(=O)[C@@H](NC(=O)Cc3ccccc3)[C@H]2SC1)=[N+](C)C [Cmpd 69, (7R)-7-[(Phenylacetyl)amino]-3-(2-tetramethylisothiouroniummethylphenylthio)-3-cephem-4-carboxylate, inner salt]	4
O=C(Cc1ccccc1)N[C@@H]1C(=O)N2C(C(=O)O)=C(Sc3ccccc3CSc3ccncc3)CS[C@H]12 [Cmpd 70]	4 (≈ 7.28 µM)
Cn1nnnc1SCc1ccccc1SC1=C(C(=O)O)N2C(=O)[C@@H](NC(=O)Cc3ccccc3)[C@H]2SC1 [Cmpd 71]	16 (≈ 28.8 µM)
O=C(Cc1ccccc1)N[C@@H]1C(=O)N2C(C(=O)O)=C(Sc3ccccc3CSC3=NCCN3)CS[C@H]12 [Cmpd 72]	4 (≈ 7.4 µM)
C[n+]1ccc(SCc2ccccc2SC2=C(C(=O)[O-])N3C(=O)[C@@H](NC(=O)Cc4ccccc4)[C@H]3SC2)cc1 [Cmpd 73, (7R)-7-[(Phenylacetyl)amino]-3-(2-(N-methylpyridin-4-ium)thiomethyl)phenylthio)-3-cephem-4-carboxylate, inner salt]	4
CCN=C(NCC)SCc1ccccc1SC1=C(C(=O)O)N2C(=O)[C@@H](NC(=O)Cc3ccccc3)[C@H]2SC1 [Cmpd 74, (7R)-7-[(Phenylacetyl)amino]-3-(2-N,N'-diethylisothiouroniummethylphenylthio)-3-cephem-4-carboxylate, inner salt]	16
O=C(Cc1ccccc1)N[C@@H]1C(=O)N2C(C(=O)O)=C(Sc3ccccc3CSc3ncccn3)CS[C@H]12 [Cmpd 75]	8 (≈ 14.5 µM)
CN=C(N)SCc1ccccc1SC1=C(C(=O)O)N2C(=O)[C@@H](NC(=O)Cc3ccccc3)[C@H]2SC1 [Cmpd 76, (7R)-7-[(Phenylacetyl)amino]-3-(2-N-methylisothiouroniummethylphenylthio)-3-cephem-4-carboxylate, inner salt]	2
Cc1nnc(SCc2ccccc2SC2=C(C(=O)O)N3C(=O)[C@@H](NC(=O)Cc4ccccc4)[C@H]3SC2)s1 [Cmpd 77]	8 (≈ 14 µM)
CC(=O)NC(=N)SCc1ccccc1SC1=C(C(=O)O)N2C(=O)[C@@H](NC(=O)Cc3ccccc3)[C@H]2SC1 [Cmpd 78, (7R)-7-[(Phenylacetyl)amino]-3-(2-N-acetylamidinothiomethylphenylthio)-3-cephem-4-carboxylic acid]	4 (≈ 7.19 µM)
NC(=NC1CC1)SCc1ccccc1SC1=C(C(=O)O)N2C(=O)[C@@H](NC(=O)Cc3ccccc3)[C@H]2SC1 [Cmpd 79, (7R)-7-[(Phenylacetyl)amino]-3-(2-N-cyclopropylisothiouroniummethylphenylthio)-3-cephem-4-carboxylate, inner salt]	4
N=C(N)SCc1cccc(SC2=C(C(=O)O)N3C(=O)[C@@H](NC(=O)Cc4ccccc4)[C@H]3SC2)c1 [Cmpd 80, (7R)-7-[(Phenylacetyl)amino]-3-(3-isothiouroniummethylphenylthio)-3-cephem-4-carboxylate, inner salt]	2
C[n+]1cccc(SC2=C(C(=O)[O-])N3C(=O)[C@@H](NC(=O)Cc4ccccc4)[C@H]3SC2)c1-c1ccccc1 [Cmpd 82, (7R)-7-[(Phenylacetyl)amino]-3-(2-phenyl-N-methylpyridin-3-iumthio)-3-cephem-4-carboxylate]	4 (≈ 7.73 µM)
O=C(Cc1ccccc1)N[C@@H]1C(=O)N2C(C(=O)[O-])=C(Sc3ccc[n+](Cc4ccccc4)c3-c3ccccc3)CS[C@H]12 [Cmpd 83, (7R)-7-[(Phenylacetyl)amino]-3-(2-phenyl-N-benzylpyridin-3-iumthio)-3-cephem-4-carboxylate]	4 (≈ 6.74 µM)
O=C(Cc1ccc(Cl)cc1)N[C@@H]1C(=O)N2C(C(=O)O)=C(Sc3cccnc3-c3ccccc3)CS[C@H]12 [Cmpd 84, (7R)-7-[(4-Chlorophenylacetyl)amino]-3-(2-phenylpyridin-3-ylthio)-3-cephem-4-carboxylic acid]	2 (≈ 3.72 µM)
